Measured values as given in publication PMC2937029 (PLoS ONE, 2010).
Read-outs that look alike come from different tables or passages of the source.

How the values were obtained:
HprK/P = molecular target: T1, HprK/P (Brucella melitensis, UniProt Q8YE44)
T1 construct: gene BMEI2034

EI^Ntr = molecular target: T2, EI^Ntr (Brucella melitensis, UniProt Q8YJ96); conditions: labelled compound; 10 µM [32P]PEP, NPr as acceptor, 5 mM MgCl2, pH 7.4, 37°C; covalent phosphoryl transfer
T2 construct: gene BMEI0190
T2 sequence (Q8YJ96 1-756): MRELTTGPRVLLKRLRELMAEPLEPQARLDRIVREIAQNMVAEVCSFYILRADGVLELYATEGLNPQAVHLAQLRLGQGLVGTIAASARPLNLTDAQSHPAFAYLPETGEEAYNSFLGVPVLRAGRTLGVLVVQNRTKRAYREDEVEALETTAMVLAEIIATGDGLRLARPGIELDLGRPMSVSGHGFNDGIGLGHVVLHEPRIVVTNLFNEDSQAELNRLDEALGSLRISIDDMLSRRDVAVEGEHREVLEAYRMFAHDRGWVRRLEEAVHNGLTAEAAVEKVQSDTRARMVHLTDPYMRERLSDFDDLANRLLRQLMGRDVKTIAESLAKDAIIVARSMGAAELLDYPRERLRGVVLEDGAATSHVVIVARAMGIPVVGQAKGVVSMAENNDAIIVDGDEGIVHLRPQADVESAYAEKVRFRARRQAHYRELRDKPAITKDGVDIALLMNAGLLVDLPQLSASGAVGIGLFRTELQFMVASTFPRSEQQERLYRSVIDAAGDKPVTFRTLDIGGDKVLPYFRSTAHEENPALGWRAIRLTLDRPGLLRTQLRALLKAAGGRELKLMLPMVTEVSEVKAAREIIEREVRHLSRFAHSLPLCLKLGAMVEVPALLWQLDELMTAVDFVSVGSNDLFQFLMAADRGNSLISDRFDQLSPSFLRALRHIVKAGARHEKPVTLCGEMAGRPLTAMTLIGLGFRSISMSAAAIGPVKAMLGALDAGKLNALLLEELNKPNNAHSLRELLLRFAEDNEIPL

T1 sequence (Q8YE44 1-159): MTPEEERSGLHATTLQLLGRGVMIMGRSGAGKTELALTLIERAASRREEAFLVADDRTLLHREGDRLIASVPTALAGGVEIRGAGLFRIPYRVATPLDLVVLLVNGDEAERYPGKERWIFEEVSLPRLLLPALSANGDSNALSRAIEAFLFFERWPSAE

Structure (SMILES)	32P NPr kinase assay, SDS-PAGE, phosphorimaging (HprK/P)	further results
Nc1ncnc2c1ncn2[C@@H]1O[C@H](COP(=O)(O)OP(=O)(O)OP(=O)(O)O)[C@@H](O)[C@H]1O [ATP]	–	32P NPr kinase assay, SDS-PAGE, phosphorimaging (HprK/P; labelled compound, 25 µM [γ-32P]ATP, NPr as acceptor, no FBP or KPi, 5 mM MgCl2, pH 7.4, 37°C): HprK/P phosphorylated wild type NPr and NPrH30A in an ATP-dependent way
O=P(O)(O)OP(=O)(O)O [PPi]	With both phosphoryl group donors, HprK/P was active as a kinase	–
C=C(OP(=O)(O)O)C(=O)O [PEP]	–	32P phosphotransfer to NPr, SDS-PAGE, phosphorimaging (EI^Ntr): the additional presence of EI allowed the phosphorylation of wild-type NPr
O=P(O)(O)O [Pi]	inhibition of both the ATP- and PPi-dependent kinase activities of B. melitensis HprK/P	–
